Oligonucleotides are written 5' to 3', each unit as a sugar letter and its base; * is a phosphorothioate linkage, no mark a phosphodiester; rarer units and linkages stand in square brackets, end groups in braces. Plain capitals give the bases only. r = 2'-OH (RNA); f = 2'-fluoro
T1: native chymase (purified from human skin mast cell) (Homo sapiens, UniProt P23946)
T1 construct: the native is chymase purified from human skin mast cell; purchased Calbiochem; host or cells: human skin mast cell
T1 sequence (P23946 22-247): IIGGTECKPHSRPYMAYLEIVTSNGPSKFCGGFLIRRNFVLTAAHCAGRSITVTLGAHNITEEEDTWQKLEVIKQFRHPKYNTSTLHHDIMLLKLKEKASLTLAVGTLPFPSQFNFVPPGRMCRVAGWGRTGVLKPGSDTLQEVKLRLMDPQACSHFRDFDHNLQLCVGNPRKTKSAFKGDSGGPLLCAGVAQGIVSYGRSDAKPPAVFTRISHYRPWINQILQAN

T2: recombinant chymase (expressed by yeast) (Homo sapiens, UniProt P23946)
T2 construct: purchased SIGMA; host or cells: yeast
T2 sequence (P23946 22-247): T1 sequence (P23946 22-247)

T3: chymase (recombinant, manufactured by SIGMA) (Homo sapiens, UniProt P23946)
T3 construct: purchased SIGMA; host or cells: yeast
T3 sequence (P23946 22-247): T1 sequence (P23946 22-247)

B1: 14 (nucleic acid)
chain: rGrGrGrAfCrGrGfUrArGrGrArAfUfUfCfUfCrGfUfUfCfCfUrGrAfCrArGfCrAfUfUfUrGrArGrAfUrArGrAfUfUfUrArArAfCrArArAfCrGfCrAfCrAfUrArGrArArGrArGfCrGrGfCfCrGfC
modifications: aptamer
B2: 4 (nucleic acid)
chain: rGrGrGrAfCrGrGfUrArGrGrArAfUfUfCrGfUfCfCrAfUfUfCfUrAfCrArGrAfUrArGrArGrAfUrArArArGfUrArGrArAfUfUfUrArAfCrArArArAfCrAfUrArGrArArGrArGfCrGrGfCfCrGfC
modifications: aptamer
B3: 13 (nucleic acid)
chain: rGrGrGrAfCrGrGfUrArGrGrArAfUfUfCfCrGfCrArAfCfCrAfUfCfCfCrGfUrArAfCfUrAfUrGrGfUfUrArGrAfUrArGrArGfUfUrArArArArAfCfCrAfUrArGrArArGrArGfCrGrGfCfCrGfC
modifications: aptamer

Assays:
[1] = biological target: T1, native chymase (purified from human skin mast cell); assay: Chymase inhibitory activity using angiotensin I as substrate, native chymase; format: biochemical; details: final 50 μM, chymase 0.2-0.5 nM, 37° C. 90 min, one measurement
Protocol: (§1) A second method of evaluation employs a native substrate. A useful native substrate for chymase is angiotensin I. Here, His-Leu, a peptide fragment released upon degradation of angiotensin I, is fluorescently derivatized, and the fluorescence intensity therefrom is quantified.
(§2) In the assay, an enzyme reaction is carried out in 50 μL of solution C. First, 0.3-0.75 ng of chymase (recombinant, manufactured by SIGMA; or native, manufactured by Calbiochem) is diluted in solution C to obtain 5 μL chymase solution. Each nucleic acid is prepared in solution C to obtain 25 μL solutions. 5 μL of each chymase dilution and 25 μL of each nucleic acid solution are mixed, and then the mixture is incubated at 37° C. for 5 minutes. […] The angiotensin I solution is added to the mixture of chymase and nucleic acid, and the enzyme reaction is initiated. After the reaction was allowed to proceed at 37° C. for 90 minutes, 25 μL of ice-cooled 30% trichloroacetic acid solution is added to terminate the reaction. The entire mixture is centrifuged at 4° C., 14000 rpm for 10 minutes, and 30 μL of the resulting supernatant is used for the subsequent reaction for fluorescent derivatization.
(§3) After 30 μL of the supernatant is added to a 96-well plate (Black, manufactured by Costar), 15 μL of 2% o-phthalaldehyde (manufactured by SIGMA) solution in methanol and 170 μL of 0.3M NaOH solution are mixed in each well, and the plate is allowed to stand at room temperature for 10 minutes. Subsequently, 25 μL of 3M HCl solution is added to terminate the reaction. The plate is set to the microplate reader SpectraMax190 (manufactured by Molecular Devices Corporation), and the fluorescence intensity is determined at an excitation wavelength of 355 nm and a fluorescence wavelength of 460 nm.
(§4) For control, samples are treated and analyzed in the same manner in two cases: use of SEQ ID NO: 58 (negative control) and use of chymostatin, a known chymotrypsin-like serine protease inhibitor (positive control). In both cases, fluorescence intensity obtained at 0 minute reaction time serves as a blank determination. Taking the fluorescence intensity detected with the addition of an equal volume of solution C, in place of each nucleic acid, in the chymase enzyme reaction as 100%, the inhibitory rate for each test substance is calculated, and the inhibitor concentration required to cause a 50% inhibition of the enzyme activity (IC50) is determined.
(§5) For further assessment of the inhibitory activity of the nucleic acid of the present invention, the enzyme activity of chymase was measured using angiotensin I, which is a native substrate for chymase, according to the following method. Angiotensin I is converted by chymase to angiotensin II, during which a peptide fragment His-Leu is released. Since the peptide His-Leu is fluorescently derivatized by o-phthalaldehyde, its fluorescence intensity can be quantitatively measured.
(§6) The total volume of solution for an enzyme reaction in the assay was set to 50 μL, and the reaction was performed in solution C buffer. First, 0.3-0.75 ng of chymase (recombinant, (manufactured by SIGMA) or native (manufactured by Calbiochem)) was diluted with solution C to give 5 μL thereof. Here, the recombinant is chymase expressed by yeast, and the native is chymase purified from human skin mast cell. The nucleic acid was serially diluted with solution C at a concentration of 0.0027-2 μM to give 25 μL thereof. The chymase solution (5 μL) and the nucleic acid solution (25 μL) were mixed, and the mixture was incubated at 37° C. for 5 min. On the other hand, […] angiotensin I (manufactured by PEPTIDE INSTITUTE, INC.) was prepared in solution C to give […] thereof, which was incubated at 37° C. for 5 min. The angiotensin I solution was added to a mixture of chymase and nucleic acid to start an enzyme reaction. The final chymase concentration of the reaction solution was 0.2-0.5 nM, and the final substrate concentration was 50 μM. […]

[2] = biological target: T2, recombinant chymase (expressed by yeast); assay: Chymase inhibitory activity using angiotensin I as substrate, recombinant chymase; format: biochemical; details: final 50 μM, chymase 0.2-0.5 nM, 37° C. 90 min, one measurement
Protocol: as §1, §2, §3, §4, §5, §6

[3] = biological target: T3, chymase (recombinant, manufactured by SIGMA); assay: Surface plasmon resonance (Biacore T100), chymase immobilized on CM5 chip, nucleic acid injected as analyte; format: binding; design: key to Binding activity as determined using Biacore: ++: a sequence that binds to chymase significantly more strongly than the negative control 40N; +: a sequence that binds to chymase equivalently compared with the negative control 40N; key to binding activity using Biacore: ++: significant binding to chymase than SEQ ID NO: 58 which is a negative control; +: similar binding level as SEQ ID NO: 58 which is a negative control; details: for Binding activity as determined using Biacore: Table 4, about 4000 RU chymase immobilized, nucleic acid 0.3 μM, solution C, compared with 40N; for binding activity using Biacore: same manner as Example 4, compared with SEQ ID NO: 58
Protocol: In another method, chymase is first immobilized onto a sensor chip, the amount immobilized being about 4000 RU. 20 μL of an aptamer solution for analyte, prepared at 0.01 μg/μL, is injected, and the binding of the aptamer to chymase is detected. An RNA containing a random nucleotide sequence of 30 or 40 nucleotides is used as a negative control.
Whether these nucleic acids bind to chymase was determined by the surface plasmon resonance method. Measurements were taken using Biacore T100 (manufactured by GE Healthcare) as described below. About 4000 RU of chymase (recombinant, manufactured by SIGMA) was immobilized on the sensor chip surface of a CM5 chip, using an amine coupling kit. 20 μL of each nucleic acid, prepared at 0.3 μM, as an analyte was injected at a flow rate of 20 μL/min. Solution C was used as a running buffer. The method of evaluation used was the same as Example 1.
All nucleic acids of SEQ ID NO: 58-68 were prepared by chemical synthesis. Whether these nucleic acids are bound to chymase was assessed by surface plasmon resonance method in the same manner as in Example 4. The inhibitory activity on chymase was measured in the same manner as in Example 3.
All nucleic acids of SEQ ID NOs: 73-79, 56(8), 80, 56(10), 81, 56(13)-56(14), 83-87 were prepared by chemical synthesis. Whether these nucleic acids are bound to chymase was assessed by surface plasmon resonance method in the same manner as in Example 4.
All nucleic acids of SEQ ID NO: 88-120, 121, 69, 122, 123, 70-72, 124-131 were prepared by chemical synthesis. Whether these nucleic acids are bound to chymase was assessed by surface plasmon resonance method in the same manner as in Example 4.

Row | Molecule | IC50 [1] [nM] | IC50 [2] [nM] | Binding activity as determined using Biacore [3] | binding activity using Biacore ([3]; Table 6) | binding activity using Biacore ([3]; Table 5) | binding activity using Biacore ([3]; Table 7)
1 | 53 (GGGUAACUAUGGUUAGAUAGAGUUAAAAACCAUAGAAGACCC; 2'-fluoro at CU, RNA at AG, backbone not given here) [compound 53] | 764 | 446 | ++ |  |  | 
2 | 54 (UAACUAUGGUUAGAUAGAGUUAAAAACCAUAGAAGA; 2'-fluoro at CU, RNA at AG, backbone not given here) [compound 54] | 614 | 397 | ++ |  |  | 
3 | 55 (CUAUGGUUAGAUAGAGUUAAAAACCAUAG; 2'-fluoro at CU, RNA at AG, backbone not given here) [compound 55] | 606 | 354 | ++ |  |  | 
4 | 56 (GGGUUAGAUAGAGUUAAAAACCC; 2'-fluoro at CU, RNA at AG, backbone not given here) [compound 56] | 508 | 235 | ++ | ++ |  | 
5 | 58 (GGGUUGAAGAUAUUAAAGAACCC; 2'-fluoro at CU, RNA at AG, backbone not given here) [compound 58] |  |  |  |  | + | 
6 | 65 (rGrGfCrArGrAfUrArGrArGfUfUrArArArGfCfC) [compound 65] | 878 | 274 |  |  | ++ | 
7 | 70 (GGGTTAGAUAGAGUUAAAAACCC; chemistry not given here) [compound 70] | 478 | 239 |  |  |  | ++
8 | 71 (GGGUUAGAUAGAGTUAAAAACCC; chemistry not given here) [compound 71] | 341 | 161 |  |  |  | ++
9 | 72 (GGGTTAGAUAGAGTUAAAAACCC; chemistry not given here) [compound 72] | 120 | 65 |  |  |  | ++
10 | CC(C)C[C@H](NC(=O)[C@@H](NC(=O)N[C@@H](Cc1ccccc1)C(=O)O)[C@@H]1CCN=C(N)N1)C(=O)N[C@H](C=O)Cc1ccccc1 [chymostatin, reference compound] | 350 to 500 | 450 to 600 |  |  |  | 
11 | GGGU(F)U(F)GAAGAU(F)AU(F)U(F)AAAGAAC(F)C(F)C(F) (GGGUUGAAGAUAUUAAAGAACCC; 2'-fluoro at CU, RNA at AG, backbone not given here) [SEQ ID NO: 58] | > 1000 | > 1000 |  |  |  | 
12 | B1 | 63 | 22 |  |  |  | 
13 | B2 | 31 | 3 |  |  |  | 
14 | B3 | 74 | 41 |  |  |  | 
